The source of these data is patent publication US20090093454A1, “Chemical Compounds” (priority 2005, published 2009).

Each structure is given as a SMILES string.

In test [1] the test system is T-tropic HIV. To be noted: patients that are dual tropic or with only the T-tropic form of the virus; cited from earlier work.
The test system of test [2] is HIV-1. Put plainly: HIV infectivity assay (Table 2, strain not given). The format is cell-based. To be noted: Human immunodeficiency virus 1, read-out: Activity Level. An outline of the steps:
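HOS cells expressing hCXCR4/hCCR5/hCD4 with HIV-LTR-luciferase, pre-treated 1 h with compound at 37 °C, then infected with HIV-1 Ba-L or IIIB (~2 million RLU/well) for 96 h. Infection read by Steady-Glo luciferase; cytotoxicity in uninfected cultures by CellTiter-Glo.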

`c1cc(CN2CCCNCCNCCCNCC2)ccc1CN1CCCNCCNCCCNCC1` [AMD-3100]: the “T-tropic HIV viral load” value in test [1] is reported as “significantly reduce”.
For the compound `N[C@H]1CCN(c2cccc3nc(CN4CCC[C@H]5CCc6cccnc6[C@H]54)cn23)C1` [Example 107, (3S)-1-{2-[(4aR,10bS)-3,4,4a,5,6,10b-hexahydro-1,10-phenanthrolin-1(2H)-ylmethyl]imidazo[1,2-a]pyridin-5-yl}-3-pyrrolidinamine], the IC50 in test [2] was less than 100 nM.
Same read-out and setting: the same measure for `NCC1CCN(c2cccc3nc(CN4CCC[C@H]5CCc6cccnc6[C@H]54)cn23)CC1` [Example 85, [(1-{2-[(4aR,10bS)-3,4,4a,5,6,10b-hexahydro-1,10-phenanthrolin-1(2H)-ylmethyl]imidazo[1,2-a]pyridin-5-yl}-4-piperidinyl)methyl]amine]: less than 100 nM.
